The source of these data is the supplement of paper PMC6045584.

± gives the standard deviation of the averaged measurements.

Compound in experiment [1]: Oc1nc(-c2ccc(C(F)(F)F)cc2)nc2c1CSCC2 [XAV-939]
The experiment in a line: surviving fraction relative to DMSO-only wells; higher = less growth inhibition. The note with it: exposure time: 5 days. The procedure, abridged:
(§1)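 Viability was scored with CellTiter-Glo luminescence and normalised to the median of DMSO-only wells as surviving fraction. Beforehand, log-phase tumour cell lines were seeded at 250–500 cells per well in 384-well plates, allowed 24 hours, and exposed continuously for five days to inhibitors at 0.5, 1, 5, 10, 50, 100, 500 and 1000 nM. Only lines whose three screens gave replicate Pearson r >0.7 and median Z' >0.3 were kept.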

Compound in experiment [2]: COc1cc2c(Oc3ccc(NC(=O)C4(C(=O)Nc5ccc(F)cc5)CC4)cc3F)ccnc2cc1OCCCN1CCOCC1 [FORETINIB]
The experiment is described as above. The note with it: exposure time: 5 days. The procedure, abridged:
as §1

In the case of HCC1954 BREAST, the surviving fraction in experiment [1] (0.5 nM) came to 0.826 ± 0.073; in experiment [1] (1 nM), 1.02 ± 0.041; in experiment [1] (5 nM), 1.15 ± 0.24; in experiment [1] (10 nM), 1.06 ± 0.042; in experiment [1] (50 nM) it was 1.111 ± 0.0085; in experiment [1] (100 nM), 0.967 ± 0.088. The surviving fraction in experiment [1] (500 nM) stood at 0.637 ± 0.0081; in experiment [1] (1000 nM), 0.723 ± 0.057; in experiment [2] (0.5 nM) it was 0.975 ± 0.071; in experiment [2] (1 nM), 1.16 ± 0.25; in experiment [2] (5 nM), 1.09 ± 0.08; in experiment [2] (10 nM), 1.14 ± 0.1. In addition, the surviving fraction worked out at 0.965 ± 0.14 in experiment [2] (50 nM), 0.903 ± 0.05 in experiment [2] (100 nM), 0.6953 ± 0.006 in experiment [2] (500 nM) and 0.418 ± 0.068 in experiment [2] (1000 nM).
HSSYII SYNOVIAL: the surviving fraction was determined as 0.942 ± 0.026 in experiment [1] (0.5 nM); 0.901 ± 0.035 in experiment [1] (1 nM); 0.994 ± 0.043 in experiment [1] (5 nM); 0.976 ± 0.011 in experiment [1] (10 nM); 0.961 ± 0.013 in experiment [1] (50 nM); 0.938 ± 0.031 in experiment [1] (100 nM). Moreover, the surviving fraction in experiment [1] (500 nM) amounted to 0.667 ± 0.034; in experiment [1] (1000 nM), 0.617 ± 0.038; in experiment [2] (0.5 nM) it was 0.972 ± 0.039; in experiment [2] (1 nM), 0.941 ± 0.031; in experiment [2] (5 nM), 0.956 ± 0.038; in experiment [2] (10 nM), 0.92 ± 0.039. Moreover, the surviving fraction worked out at 0.85 ± 0.028 in experiment [2] (50 nM), 0.771 ± 0.028 in experiment [2] (100 nM), 0.208 ± 0.021 in experiment [2] (500 nM) and 0.0695 ± 0.0013 in experiment [2] (1000 nM).
For the test system MFM223 BREAST, the surviving fraction in experiment [1] (0.5 nM) came to 1.18 ± 0.037; in experiment [1] (1 nM), 1.11 ± 0.062; in experiment [1] (5 nM) it was 1.12 ± 0.023; in experiment [1] (10 nM), 1.112 ± 0.0058; in experiment [1] (50 nM), 0.913 ± 0.034; in experiment [1] (100 nM) it was 1.08 ± 0.043. Moreover, the surviving fraction is 0.891 ± 0.059 in experiment [1] (500 nM); 0.685 ± 0.033 in experiment [1] (1000 nM); 1.17 ± 0.043 in experiment [2] (0.5 nM); 1.09 ± 0.041 in experiment [2] (1 nM); 1.18 ± 0.062 in experiment [2] (5 nM); 1.22 ± 0.034 in experiment [2] (10 nM). Also, the surviving fraction worked out at 1.133 ± 0.011 in experiment [2] (50 nM), 0.94 ± 0.023 in experiment [2] (100 nM), 0.417 ± 0.17 in experiment [2] (500 nM) and 0.271 ± 0.13 in experiment [2] (1000 nM).
Regarding MDAMB468 BREAST, the surviving fraction was 1.08 ± 0.041 in experiment [1] (0.5 nM); 1.04 ± 0.061 in experiment [1] (1 nM); 1.04 ± 0.039 in experiment [1] (5 nM); 1.08 ± 0.038 in experiment [1] (10 nM); 1.09 ± 0.014 in experiment [1] (50 nM); 1.05 ± 0.033 in experiment [1] (100 nM). The surviving fraction in experiment [1] (500 nM) was 0.988 ± 0.072; in experiment [1] (1000 nM) it was 0.964 ± 0.043; in experiment [2] (0.5 nM) it was 1.02 ± 0.03; in experiment [2] (1 nM), 1.05 ± 0.059; in experiment [2] (5 nM), 1.12 ± 0.077; in experiment [2] (10 nM), 1.09 ± 0.03. For the same test system, the surviving fraction in experiment [2] (50 nM) amounted to 1.15 ± 0.086; in experiment [2] (100 nM), 1.06 ± 0.076; in experiment [2] (500 nM), 0.928 ± 0.082; in experiment [2] (1000 nM) it was 0.356 ± 0.014.
Regarding CHLA90 AUTONOMIC GANGLIA, the surviving fraction in experiment [1] (0.5 nM) stood at 1.01 ± 0.071; in experiment [1] (1 nM), 1.04 ± 0.051; in experiment [1] (5 nM) it was 0.989 ± 0.031; in experiment [1] (10 nM) it was 0.997 ± 0.045; in experiment [1] (50 nM) it was 0.975 ± 0.019; in experiment [1] (100 nM), 0.948 ± 0.067. Besides, the surviving fraction in experiment [1] (500 nM) came to 0.987 ± 0.072; in experiment [1] (1000 nM), 0.933 ± 0.022; in experiment [2] (0.5 nM), 0.983 ± 0.048; in experiment [2] (1 nM), 1.1 ± 0.24; in experiment [2] (5 nM), 0.977 ± 0.069; in experiment [2] (10 nM), 0.909 ± 0.045. In addition, the surviving fraction in experiment [2] (50 nM) was found to be 0.962 ± 0.13; in experiment [2] (100 nM), 0.941 ± 0.12; in experiment [2] (500 nM), 0.62 ± 0.11; in experiment [2] (1000 nM), 0.493 ± 0.12.
HCC78 LUNG: the surviving fraction in experiment [1] (0.5 nM) is 0.9 ± 0.1; in experiment [1] (1 nM), 0.925 ± 0.12; in experiment [1] (5 nM), 1.09 ± 0.18; in experiment [1] (10 nM), 0.991 ± 0.13; in experiment [1] (50 nM), 0.983 ± 0.082; in experiment [1] (100 nM), 0.822 ± 0.16. Further, the surviving fraction turned out to be 0.286 ± 0.062 in experiment [1] (500 nM); 0.358 ± 0.08 in experiment [1] (1000 nM); 0.779 ± 0.1 in experiment [2] (0.5 nM); 0.92 ± 0.14 in experiment [2] (1 nM); 0.89 ± 0.12 in experiment [2] (5 nM); 0.752 ± 0.091 in experiment [2] (10 nM). Also, the surviving fraction worked out at 0.257 ± 0.06 in experiment [2] (50 nM), 0.259 ± 0.039 in experiment [2] (100 nM), 0.179 ± 0.025 in experiment [2] (500 nM) and 0.0403 ± 0.0068 in experiment [2] (1000 nM).
For the test system HT1080 SOFT TISSUE, the surviving fraction in experiment [1] (0.5 nM) was determined as 1.05 ± 0.018; in experiment [1] (1 nM), 1.04 ± 0.05; in experiment [1] (5 nM) it was 1.03 ± 0.024; in experiment [1] (10 nM), 1.02 ± 0.023; in experiment [1] (50 nM), 0.971 ± 0.0036; in experiment [1] (100 nM), 0.872 ± 0.0099. Besides, the surviving fraction in experiment [1] (500 nM) amounted to 0.579 ± 0.0091; in experiment [1] (1000 nM) it was 0.476 ± 0.0083; in experiment [2] (0.5 nM) it was 1.01 ± 0.026; in experiment [2] (1 nM), 1.06 ± 0.037; in experiment [2] (5 nM) it was 1 ± 0.017; in experiment [2] (10 nM), 1.01 ± 0.033. Also, the surviving fraction in experiment [2] (50 nM) came out at 1.04 ± 0.048; in experiment [2] (100 nM), 0.996 ± 0.017; in experiment [2] (500 nM), 0.779 ± 0.025; in experiment [2] (1000 nM), 0.3927 ± 0.0032.
